Test systems include 786-0; A549; DU-145; HCT-15; HOP-92; HT-29; K562; MCF7; MDA-MB-231; MDA-N; Malme-3M; OVCAR-3; OVCAR-8; PC-3; RPMI-8226; RXF 393; SF-295; SF-539; SK-MEL-2.
Holding throughout (experiment): growth of human tumour cells (NCI), 48 h

The values that follow come from ChEMBL document CHEMBL1201862, “PubChem BioAssay data set” (2004).

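All cell lines were grown in 96-well plates and treated with compound for 48 hours. GI50 marks 50% less growth.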 Activity calls are given as the source filed them. No stated cut-off is given here; in the data, active = GI50 up to about 1.1 µM and inactive = higher. Square brackets hold non-standard residues; d marks the D form. Peptide text beside a SMILES is read from it. Ac5c = NC1(C(=O)O)CCCC1

Turning to `O=C(O)CSC1=NCCN1`, the GI50 in the experiment on 786-0 was > 100 µM (inactive); in the experiment with A549, > 100 µM (inactive); in the experiment with DU-145, > 100 µM (inactive); in the experiment on HCT-15 it was over 100 µM; in the experiment with HOP-92 it was > 100 µM (inactive); in the experiment with HT-29 it was > 100 µM (inactive). The GI50 with K562, in the experiment with MCF7, with MDA-MB-231, with MDA-N, in the experiment with Malme-3M and with OVCAR-3 was > 100 µM (inactive) in each case. Further, the GI50 in the experiment on OVCAR-8, in the experiment on PC-3, in the experiment on RPMI-8226, in the experiment with RXF 393, in the experiment on SF-295 and in the experiment on SF-539 was > 100 µM (inactive) throughout. The GI50 with SK-MEL-2 is > 100 µM (inactive).
For `O=C1NC(Cc2ccc(O)cc2)C(=O)NC1Cc1ccc(O)cc1` (configuration not stated), the GI50 in the experiment on 786-0 was > 100 µM (inactive); in the experiment with A549, > 100 µM (inactive); in the experiment with DU-145 it was 24.8 µM (inactive); in the experiment with HCT-15, over 100 µM; in the experiment on HOP-92 it was > 100 µM (inactive); in the experiment on HT-29, > 100 µM (inactive). In addition, the GI50 with K562 was > 100 µM (inactive); in the experiment on MCF7, > 100 µM (inactive); with MDA-MB-231 it was > 100 µM (inactive); with MDA-N it was 30.1 µM (inactive); in the experiment with Malme-3M it was > 100 µM (inactive); in the experiment on OVCAR-3 it was > 100 µM (inactive). Moreover, the GI50 in the experiment with OVCAR-8, with PC-3, with RPMI-8226, in the experiment on RXF 393, in the experiment on SF-295 and in the experiment on SF-539 was > 100 µM (inactive) throughout. The GI50 with SK-MEL-2 is > 100 µM (inactive).
As for `Cn1c(NNc2ccccc2)cc(=O)[nH]c1=O`, the GI50 in the experiment with 786-0 was 20.5 µM (inactive); in the experiment on A549, 37.7 µM (inactive); with DU-145 it was > 100 µM (inactive); in the experiment on HCT-15, 16.3 µM; in the experiment with HOP-92 it was 63.8 µM (inactive); with HT-29, 86.9 µM (inactive). For the same compound, the GI50 with K562 was 36.7 µM (inactive); with MCF7, 33.8 µM (inactive); in the experiment on MDA-MB-231 it was 28.9 µM (inactive); in the experiment on MDA-N, 20.5 µM (inactive); in the experiment with Malme-3M, 57.8 µM (inactive); in the experiment on OVCAR-3, 23.2 µM (inactive). Besides, the GI50 in the experiment with OVCAR-8 was 29.8 µM (inactive); in the experiment on PC-3, 38.6 µM (inactive); in the experiment on RPMI-8226, 35.3 µM (inactive); in the experiment with RXF 393, 61.8 µM (inactive); with SF-295, 21.8 µM (inactive); in the experiment on SF-539 it was 29.3 µM (inactive). Also, the GI50 with SK-MEL-2 was 3.63 µM (inactive).
`O=C1C(c2ccccc2)=C(c2ccccc2)C1(Cl)Cl`: the GI50 in the experiment with 786-0 is 2.69 µM (inactive); in the experiment with A549, 11.4 µM (inactive); in the experiment with DU-145 it was 11.7 µM (inactive); in the experiment on HCT-15, 2.07 µM; in the experiment on HOP-92, 2.37 µM (inactive); in the experiment on HT-29 it was 3.15 µM (inactive). Besides, the GI50 with K562 was 1.91 µM (inactive); in the experiment on MCF7 it was 2.61 µM (inactive); in the experiment with MDA-MB-231 it was 3.28 µM (inactive); in the experiment with MDA-N, 2.02 µM (inactive); with Malme-3M, 2.86 µM (inactive); with OVCAR-3, 2.62 µM (inactive). The GI50 with OVCAR-8 was 2.64 µM (inactive); in the experiment with PC-3, 4.37 µM (inactive); with RPMI-8226, 2.11 µM (inactive); in the experiment with RXF 393 it was 1.88 µM (inactive); in the experiment on SF-295, 9.89 µM (inactive); with SF-539, 3.05 µM (inactive). Besides, the GI50 in the experiment with SK-MEL-2 is 2.72 µM (inactive).
As to `NCC(=O)NC1(C(=O)O)CCCC1` (H-Gly-[Ac5c]-OH), the GI50 was > 100 µM (inactive) with 786-0; > 100 µM (inactive) in the experiment on A549; > 100 µM (inactive) with DU-145; over 100 µM in the experiment on HCT-15; > 100 µM (inactive) in the experiment with HOP-92; > 100 µM (inactive) in the experiment with HT-29. The GI50 in the experiment with K562, with MCF7, in the experiment with MDA-MB-231, with MDA-N, in the experiment on Malme-3M and in the experiment with OVCAR-3 was > 100 µM (inactive) each time. Besides, the GI50 in the experiment with OVCAR-8, with PC-3, with RPMI-8226, with RXF 393, in the experiment with SF-295 and with SF-539 was > 100 µM (inactive) each time. Further, the GI50 in the experiment with SK-MEL-2 was > 100 µM (inactive).
`CSC(=N/C=C/c1ccccc1)SC`: the GI50 in the experiment on 786-0 is > 100 µM (inactive); with A549, 60.3 µM (inactive); with DU-145 it was > 100 µM (inactive); with HCT-15 it was over 100 µM; with HOP-92 it was > 100 µM (inactive); in the experiment with HT-29 it was > 100 µM (inactive). The GI50 in the experiment with K562 was 72.8 µM (inactive); in the experiment on MCF7 it was > 100 µM (inactive); with MDA-MB-231, > 100 µM (inactive); with MDA-N, 55.6 µM (inactive); in the experiment on Malme-3M, > 100 µM (inactive); with OVCAR-3, 51.4 µM (inactive). Also, the GI50 is > 100 µM (inactive) in the experiment with OVCAR-8; 64.3 µM (inactive) with PC-3; > 100 µM (inactive) with RPMI-8226; 25.2 µM (inactive) in the experiment with RXF 393; > 100 µM (inactive) in the experiment on SF-295; > 100 µM (inactive) in the experiment on SF-539. For the same compound, in the experiment on SK-MEL-2, the GI50 was > 100 µM (inactive).
Take `CCOC(=O)n1ccc2c(C(=O)OC)c(C(=O)OC)cc(/C(=C/C(=O)OC)C(=O)OC)c21`: the GI50 with 786-0 is > 100 µM (inactive); in the experiment on A549 it was > 100 µM (inactive); in the experiment with DU-145, > 100 µM (inactive); in the experiment on HCT-15, over 10 µM; with HOP-92, 34.3 µM (inactive); with HT-29, > 100 µM (inactive). In addition, the GI50 in the experiment with K562 is 26.5 µM (inactive); with MCF7 it was > 100 µM (inactive); with MDA-MB-231 it was > 100 µM (inactive); in the experiment on MDA-N, 83.6 µM (inactive); in the experiment with Malme-3M, > 100 µM (inactive); in the experiment with OVCAR-3, > 100 µM (inactive). Also, the GI50 is > 100 µM (inactive) in the experiment with OVCAR-8; > 100 µM (inactive) in the experiment with PC-3; 26.5 µM (inactive) with RPMI-8226; 66.8 µM (inactive) in the experiment on RXF 393; > 100 µM (inactive) with SF-295; > 100 µM (inactive) in the experiment with SF-539. Also, the GI50 in the experiment on SK-MEL-2 was > 100 µM (inactive).
Consider `CC(C)/C(Cl)=N/OC(=O)Nc1ccc(OC(F)(F)F)cc1`, for which the GI50 in the experiment on 786-0 is 6.81 µM (inactive); with A549, 17 µM (inactive); with DU-145, 17.2 µM (inactive); in the experiment with HCT-15 it was 6.12 µM; in the experiment on HOP-92, 1.68 µM (inactive); in the experiment on HT-29, 18.6 µM (inactive). For the same compound, the GI50 in the experiment on K562 was 1.76 µM (inactive); in the experiment on MCF7 it was 13.5 µM (inactive); with MDA-MB-231, 15.6 µM (inactive); with MDA-N, 13.4 µM (inactive); in the experiment on Malme-3M, 2.48 µM (inactive); with OVCAR-3, 17.9 µM (inactive). Further, the GI50 in the experiment on OVCAR-8 was 18.1 µM (inactive); with PC-3, 16.1 µM (inactive); with RPMI-8226, 2.49 µM (inactive); in the experiment with RXF 393, 4.03 µM (inactive); with SF-295, 18.5 µM (inactive); in the experiment on SF-539, 17.3 µM (inactive). Also, in the experiment with SK-MEL-2, the GI50 was 14.2 µM (inactive).
